Data taken from patent US20110021440A1, “APOPTOTIC PATHWAY TARGETING FOR THE DIAGNOSIS AND TREATMENT OF CANCER” (UNIVERSITY OF MARYLAND, BALTIMORE, priority 2007, published 2011).
Entries after “also recorded” stand apart in the source; their conditions may differ. Peptide text beside a SMILES is read from it. * marks the point of attachment. Cbz = O=C(OCc1ccccc1)*

Columns and labels:
Bik protein [1] = assay: Western blotting of Bik protein in MCF10A cells; format: cell-based, human; conditions: 24 h
Protocol: (§1) FIG. 1A relates to human mammary epithelial cells (MCF10A) grown for 24 h in the presence or absence of a proteasomal inhibitor (MG132, 5 μM). […] Lysates from Ramos cells are included as a positive control for Bik and parallel blotting for β-actin confirm equivalent levels of protein. FIG. 1B relates to Bik protein increases after forced cell rounding with the actin polymerization inhibitor, Latrunculin-A (LA, 5 μM for 24 h). Bik protein is low in standard growth media (GROW). […] Cell rounding may therefore act selectively to upregulate Bik rather than through a nonspecific apoptotic signal.
(§2) FIG. 6 illustrates Bik protein is degraded by the proteasome but remains reduced in tumor cell lines. Protein lysates from control cells (Ramos), nontumorigenic human mammary epithelial cells (MCF10A) or 11 human breast tumor cell lines were immunoblotted for Bik and b-actin as a loading control. […] Bik protein remained low in the tumor cell lines, even in the presence of MG132.
(§3) FIG. 7 illustrates tumor lines with reduced Bik resist apoptosis by cytoskeletal disruption.
(§4) Bik values were normalized to amplification of GAPDH, which was highly consistent in all cell lines and dissociation curves confirmed specificity with a single major amplification product in each reaction type (FIG. 5B). Despite the detectable levels of mRNA, Bik protein levels were very low in the tumor lines and MCF10A cells under normal growth conditions. Since Bik can be degraded by the proteasome (Zhu et al., Oncogene, 24:4993-4999 (2005)), cells were treated with MG132 to inhibit the proteasome and increase detectable Bik levels (FIG. 6). […] Downregulation of Bik in MDA-MB-453 cells therefore occurs independently from mRNA expression. However, loss of Bik function as a common event in breast tumors continues to be supported by these finding.
(§5) Several apoptotic stimuli were tested for their ability to induce Bik expression in MCF10A cells were evaluated (FIG. 7A). Compared to a Ramos positive control lysate, MCF10A cells express very low levels of Bik under normal growth conditions. […] Bik expression in MCF10A cells increased after treatment with Latrunculin-A (LA), an inhibitor of the actin cytoskeleton that causes cell rounding (Martin et al., Mol. Cell. Biol., 21:6529-6536 (2001)). Apoptosis caused by cell rounding and cytoskeletal disruption has been termed amorphosis (Martin et al., Biochim. Biophys. Acta., 1692:145-157 (2004)), and resistance to amorphosis is thought to contribute to metastatic potential by allowing tumor cells to tolerate the cell shape changes that occur during bloodborne dissemination (Martin et al., Oncogene, 23:4641-4645 (2004); Mehlen et al., Nat. Rev. Cancer, 6:449-458 (2006); Pinkas et al., Mol. Cancer. Res., 2:551-556 (2004)). […] Since Bik is induced by cell rounding, its loss in tumors may reduce their apoptotic sensitivity and yield a greater metastatic potential. In fact, reduced expression of Bik predicts increased nodal involvement in colorectal cancer (Bandres et al., Oncol. Rep., 12:287-292 (2004)). Conversely, forced expression of Bik inhibits systemic breast tumor growth (Zou et al., Cancer Res., 62:8-12 (2002)).

MCF10A cells [2] = assay: Apoptosis / cell death in MCF10A cells (PARP cleavage); format: cell-based, human; conditions: for cell death: 24 h, TRAIL 1 μg/mL, CHX 30 μg/mL, DOX 3 μg/mL, not shown; for apoptosis as assessed by PARP cleavage: 24 hours
Protocol: as §1, §5

Bik protein [3] = assay: Western blotting of Bik protein in MCF10A cells stably expressing Bcl-xL; format: cell-based, human; conditions: forced cell rounding, LA 5 μM, 24 h
Excerpt: (§6) MCF10A or MCF-7 cells show comparably low levels of Bik. […] This increase in Bik is so strong that the moderate increases observed with LA in MCF10A cells (FIG. 7B) cannot even be detected here due to the short exposure times necessary to prevent oversaturating signal.
as §6, with “FIG. 15 illustrates apoptotically-resistant cell accumulate high” for “MCF10A or MCF-7 cells show comparably low”, “Bik when rounded.” for “Bik.”, “7A)” for “7B)”

Bik protein [4] = assay: Western blotting of Bik protein in MCF10A cells stably expressing Bcl-2; format: cell-based, human; conditions: forced cell rounding, LA 5 μM, 24 h
Excerpt: as §6
as §6, with “FIG. 15 illustrates apoptotically-resistant cell accumulate high” for “MCF10A or MCF-7 cells show comparably low”, “Bik when rounded.” for “Bik.”, “7A)” for “7B)”

[5] = tested on: MCF10A cells stably expressing Bcl-2 (10A-Bcl2); assay: Cell viability assay (XTT), 10A-Bcl2 cells; format: cell-based
Protocol: Viability was measured with XTT and each point represents the mean+/−S.D. for triplicate samples.

BCRP protein [6] = assay: Western blotting of BCRP in MCF10A cells; format: cell-based, human; conditions: LA 5 μM, 24 h, rounded
Protocol: (§7) FIG. 12 illustrates cell rounding also upregulates the BCRP drug resistance protein. […] MCF10A mammary epithelial cells or MCF-7 and Bt-474 breast tumor cells were grown for 24 h in standard media (Control), serum-free conditions (DMEM) or forced cell rounding through inhibition of actin polymerization with Latrunculin-A (LA, 5 μM—Rounded). […] Levels of actin remain constant.

MCF10A cells [7] = format: cell-based
Protocol: as §3
(§8) FIG. 13 illustrates cells expressing the survival proteins Bcl-2 or Bcl-xL are highly resistant to cell death induced by cell rounding (LA). […] Nearly 60% of cells overexpressing Bcl-xL remain viable even at concentrations of LA as high as 20 μM. […] Viability was measured with XTT and each point represents the mean+/−S.D. for triplicate samples.
FIG. 19 illustrates that YC137 remains toxic to normal cells (MCF10A). […] Such compounds would not be expected to be effective therapies due to likely side effects on normal tissues. If compounds were only toxic to rounded cells, that would be acceptable, since normal tissues are attached and not rounded.
as §5

breast tumor cell lines = assay: Cell viability assay (XTT), breast tumor cell lines; format: cell-based, human; conditions: tumor cell lines with reduced Bik; up to very high doses, 5 μM LA; listed as LA
Protocol: as §3
as §5, with “Conversely, forced expression of Bik inhibits systemic breast tumor growth (Zou et al., Cancer Res., 62:8-12 (2002)).” left out

[8] = tested on: MCF10A cells stably expressing Bcl-xL; assay: Cell viability assay (XTT), MCF10A cells expressing Bcl-xL; format: cell-based, human
Protocol: as §8

BCRP protein [9] = assay: Western blotting of BCRP in Bt-474 cells; format: cell-based, human; conditions: LA 5 μM, 24 h, rounded
Protocol: as §7

BCRP protein [10] = assay: Western blotting of BCRP in MCF-7 cells; format: cell-based, human; conditions: LA 5 μM, 24 h, rounded
Protocol: as §7

Bik protein [11] = assay: Immunoblot of Bik protein in 11 human breast tumor cell lines; format: cell-based; conditions: +MG132 5 μM, 24 h; compared with MCF10A
Excerpt: as §2, §4

MDA-436 cells = assay: Toxicity of microtentacle inhibitors to breast tumor cells; format: cell-based; conditions: 100 μM, even after 24 hours
Protocol: (§9) FIG. 23 illustrates methods used to image circulating tumor cells and microtentacles. Surgically-isolated blood vessels from mice are sutured to the ends of glass micropipettes to allow solution flow through the vessels. After endothelial labeling with Fluo-4 (green), MDA-436 breast tumor cells, stained with QDot-655 (red), were injected and allowed to circulate through the vessel. […] In the right panel the effects of microtentacle inhibitors are imaged with DIC microscopy. Detachment of vimentin-expressing breast tumor cell lines, like MDA-231 and MDA-436 (pictured, FIG. 23 D), stimulates the formation of rapidly-moving tubulin microtentacles (Whipple et al., “Vimentin filaments support extension of tubulin-based microtentacles in detached breast tumor cells”, Cancer Research, (2008), (under revision)). We added the kinesin inhibitor, tetracaine (100 μM) (Miyamoto et al., Biophys. J., 78:940-949 (2000)) and collected DIC images every 30 seconds (Yoon et al., “Microtentacles in detached breast tumor cells require kinesin motor activity”, manuscript in preparation (2008)). After approximately 10 minutes, tubulin microtentacles collapse dramatically (FIG. 23 E). This concentration of drug is non-toxic to these cells, even after 24 hours.

[12] = tested on: tubulin microtentacles of MDA-436 cells; assay: DIC imaging of tubulin microtentacles in detached breast tumor cells; format: cell-based; conditions: tetracaine 100 μM
Protocol: as §9

[13] = tested on: Bax- and Bak-deficient MEFs (DKO); conditions: cited from earlier work
[14] = LA 5 μM, TRAIL 1 μg/mL, CHX 30 μg/mL, DOX 3 μg/mL
[15] = LA 24 h, versus parental MCF10A

Molecule: C[C@@H]1C[C@@H]([C@H](O)CC2CC(=O)NC(=O)C2)C(=O)[C@@H](C)C1 [Cycloheximide]
- Bik protein (Western blotting) (Bik protein [1]; [14]): do not increase Bik levels
- Bik protein (Western blotting) (Bik protein [1]; LA 5 μM, TRAIL 1 μg/mL, CHX 30 μg/mL, DOX 3 μg/mL, listed as cycloheximide): did not induce significant expression of Bik; also recorded: did not increase Bik protein
- cell death (MCF10A cells [2]): causes cell death comparable to LA
- apoptosis as assessed by PARP cleavage (MCF10A cells [2]): does induce apoptosis

Molecule: COc1cccc2c1C(=O)c1c(O)c3c(c(O)c1C2=O)C[C@@](O)(C(=O)CO)C[C@@H]3O[C@H]1C[C@H](N)[C@H](O)[C@H](C)O1 [Doxorubicin]
- Bik protein (Western blotting) (Bik protein [1]; [14]): did not induce significant expression of Bik; also recorded: do not increase Bik levels; also recorded: did not increase Bik protein
- cell death (MCF10A cells [2]): causes cell death comparable to LA
- apoptosis as assessed by PARP cleavage (MCF10A cells [2]): does induce apoptosis

Molecule: C/C1=C/C(=O)O[C@@H]2C[C@@H](CC[C@H](C)/C=C\C=C\CC1)O[C@@](O)([C@@H]1CSC(=O)N1)C2 [Latrunculin-A]
- Bik protein (Western blotting) (Bik protein [3]): dramatic increases in Bik protein
- Bik protein (Western blotting) (Bik protein [1]; [14]): increases; also recorded: did increase Bik significantly
- Bik protein (Western blotting) (Bik protein [4]): dramatic increases in Bik protein
- resistance to apoptosis induced by cell rounding (XTT) [5, 15]: significantly resistant
- tolerated doses of LA ([5]; cell rounding): ≤ 20 µM
- BCRP protein (Western blotting) (BCRP protein [6]): increases BCRP protein
- LA concentration at which cell death is maximal (MCF10A cells [7]): 5 µM
- cell viability (XTT) (MCF10A cells [7]; LA 24 h, doses as low as 2.5 μM): drops significantly
- resistance to LA-induced apoptosis (XTT viability) (breast tumor cell lines): highly resistant to LA-induced apoptosis; also recorded: significant resistance to apoptosis
- resistance to apoptosis induced by cell rounding (XTT) [8, 15]: significantly resistant
- cells remaining viable (XTT) ([8]; LA as high as 20 μM, 24 h): ~60%
- BCRP protein (Western blotting) (BCRP protein [9]): not
- BCRP protein (Western blotting) (BCRP protein [10]): increases BCRP protein

Molecule: CC(C)C[C@@H](C=O)NC(=O)[C@H](CC(C)C)NC(=O)[C@H](CC(C)C)NC(=O)OCc1ccccc1 [MG132] (Cbz-Leu-Leu-Leu-aldehyde)
- Bik protein (Western blotting) (Bik protein [1]; MG132 5 μM): strong induction of Bik protein; also recorded: strongly upregulated; also recorded: strongly increased
- Bik protein (immunoblot) (Bik protein [11]): significantly lower levels of Bik protein; also recorded: remained low

Molecule: COC(=O)N[C@@H](CCSC)C(=O)Oc1ccc(Nc2nc3c(s2)C(=O)c2ccccc2C3=O)cc1 [YC-137]
- decrease in cell viability (XTT) compared to YC-137 alone ([5]; 1 μg/ml YC-137 combined with 2.5 μM LA): greater than 2 fold
- cell viability (XTT) compared to YC-137 alone ([5]; YC-137 1 μg/ml or 2.5 μg/ml with LA 2.5 μM, 24 h, P<0.05): significant decrease in cell viability
- doses at which YC-137 causes toxicity on its own ([5]; YC-137 alone): higher than 1 μM
- effect on rounded versus attached cells ([5]; YC-137 at lower levels): affects rounded cells more than attached cells
- cell death on combining with cell rounding ([5]; YC-137 with LA 2.5 μM, 24 h): increases cell death
- toxicity to attached and rounded cells (MCF10A cells [7]): toxic to both attached and rounded MCF10A cells
- viability (XTT) (MCF10A cells [7]): lose viability
- cell death on combining with cell rounding (MCF10A cells [7]; YC-137 with LA 2.5 μM, 24 h): increases cell death

Molecule: CCCCNc1ccc(C(=O)OCCN(C)C)cc1 [tetracaine]
- toxicity to the cells (MDA-436 cells): non-toxic
- time to collapse of tubulin microtentacles [12]: approximately 10 minutes

Molecule: BH3I-1
- toxicity against cells that lack Bax and Bak [13]: toxic against cells that lack Bax and Bak

B1: TRAIL: apoptotic stimulus (protein, UniProt P50591 1-281, looked up)
Tumor necrosis factor ligand …: MAMMEVQGGPSLGQTCVLIVIFTVLLQSLCVAVTYVYFTNELKQMQDKYSKSGIACFLKEDDSYWDPNDEESMNSPCWQVKWQLRQLVRKMILRTSEETISTVQEKQQNISPLVRERGPQRVAAHITGTRGRSNTLSSPNSKNEKALGRKINSWESSRSGHSFLSNLHLRNGELVIHEKGFYYIYSQTYFRFQEEIKENTKNDKQMVQYIYKYTSYPDPILLMKSARNSCWSKDAEYGLYSIYQGGIFELKENDRIFVSVTNEHLIDMDHEASFFGAFLVG
- Bik protein (Western blotting) (Bik protein [1]; [14]): did not induce significant expression of Bik; also recorded: do not increase Bik levels; also recorded: did not increase Bik protein
- cell death (MCF10A cells [2]): causes cell death comparable to LA
- apoptosis as assessed by PARP cleavage (MCF10A cells [2]): does induce apoptosis
